Assay results: article PMC7257206, “A novel sphingosylphosphorylcholine and sphingosine-1-phosphate receptor 1 antagonist, KRO-105714, for alleviating atopic dermatitis” (Journal of Inflammation (London, England), 2020)

Legend:
1A2 = target: T1, 1A2 (Homo sapiens, UniProt P05177); assay: biochemical; design: CYP450 isoform inhibition assay, IC50; conditions: read-out: CYP450 IC50
T1 construct: gene CYP1A2
T1 sequence (P05177 1-516): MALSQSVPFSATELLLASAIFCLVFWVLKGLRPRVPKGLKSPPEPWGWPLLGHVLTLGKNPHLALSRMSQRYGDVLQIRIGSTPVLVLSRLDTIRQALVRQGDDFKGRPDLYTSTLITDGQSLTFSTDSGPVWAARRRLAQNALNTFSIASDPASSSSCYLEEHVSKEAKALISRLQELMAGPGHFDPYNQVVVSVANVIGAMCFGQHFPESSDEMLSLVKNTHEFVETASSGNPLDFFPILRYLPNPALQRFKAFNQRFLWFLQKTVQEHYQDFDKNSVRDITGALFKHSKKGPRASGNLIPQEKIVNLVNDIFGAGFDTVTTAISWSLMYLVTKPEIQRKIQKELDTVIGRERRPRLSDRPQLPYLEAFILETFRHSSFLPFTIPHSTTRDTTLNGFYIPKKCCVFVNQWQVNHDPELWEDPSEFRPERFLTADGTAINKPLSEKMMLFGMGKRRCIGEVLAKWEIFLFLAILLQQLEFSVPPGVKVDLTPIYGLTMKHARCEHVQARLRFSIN

hERG potassium channel [1] = target: T2, hERG potassium channel (Homo sapiens, UniProt Q12809); assay: in vitro; design: hERG binding assay, [3H]astemizole displacement
T2 construct: gene KCNH2
Procedure: KRO-105714 also had no cardiotoxicity in the hERG potassium channel binding assay (IC50 > 10 μM) (Additional file 1: Table S1B).

2C9 = target: T3, 2C9 (Homo sapiens, UniProt P11712); assay: biochemical
T3 construct: gene CYP2C9

[2] = target: T4, sphingosine-1-phosphate receptor 1 (S1P1) (Homo sapiens, UniProt P21453); assay: […]-GTPγS binding assay (SPC-stimulated) in membranes of HEK-293 cells stably expressing hS1P1; assay type: biochemical
T4 construct: gene S1PR1; hS1P1 stably expressed in HEK-293 cells (membrane pellets)

2D6 = target: T5, 2D6 (Homo sapiens, UniProt P10635); assay: biochemical; design: CYP450 isoform inhibition assay, IC50; conditions: read-out: CYP450 IC50
T5 construct: gene CYP2D6

hERG potassium channel [3] = target: T2, hERG potassium channel; assay: biochemical
3A4 = target: T6, 3A4 (Homo sapiens, UniProt P08684); assay: biochemical; design: CYP450 isoform inhibition assay, IC50; conditions: read-out: CYP450 IC50
T6 construct: gene CYP3A4

2C19 = target: T7, 2C19 (Homo sapiens, UniProt P33261); assay: biochemical; design: CYP450 isoform inhibition assay, IC50; conditions: read-out: CYP450 IC50
T7 construct: gene CYP2C19
T7 sequence (P33261 whole entry, canonical isoform): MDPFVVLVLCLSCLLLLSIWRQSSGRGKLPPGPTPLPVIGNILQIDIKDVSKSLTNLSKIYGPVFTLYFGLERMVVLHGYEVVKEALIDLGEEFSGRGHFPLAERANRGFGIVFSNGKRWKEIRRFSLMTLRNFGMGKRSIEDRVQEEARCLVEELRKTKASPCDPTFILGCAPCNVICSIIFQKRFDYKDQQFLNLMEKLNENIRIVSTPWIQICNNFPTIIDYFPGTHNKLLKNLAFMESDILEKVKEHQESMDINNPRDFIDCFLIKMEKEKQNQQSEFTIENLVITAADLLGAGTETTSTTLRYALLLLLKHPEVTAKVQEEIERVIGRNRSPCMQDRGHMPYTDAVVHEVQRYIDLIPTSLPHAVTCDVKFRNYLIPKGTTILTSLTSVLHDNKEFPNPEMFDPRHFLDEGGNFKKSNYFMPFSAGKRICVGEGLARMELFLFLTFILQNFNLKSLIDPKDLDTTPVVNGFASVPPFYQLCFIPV

T2 sequence (Q12809 whole entry): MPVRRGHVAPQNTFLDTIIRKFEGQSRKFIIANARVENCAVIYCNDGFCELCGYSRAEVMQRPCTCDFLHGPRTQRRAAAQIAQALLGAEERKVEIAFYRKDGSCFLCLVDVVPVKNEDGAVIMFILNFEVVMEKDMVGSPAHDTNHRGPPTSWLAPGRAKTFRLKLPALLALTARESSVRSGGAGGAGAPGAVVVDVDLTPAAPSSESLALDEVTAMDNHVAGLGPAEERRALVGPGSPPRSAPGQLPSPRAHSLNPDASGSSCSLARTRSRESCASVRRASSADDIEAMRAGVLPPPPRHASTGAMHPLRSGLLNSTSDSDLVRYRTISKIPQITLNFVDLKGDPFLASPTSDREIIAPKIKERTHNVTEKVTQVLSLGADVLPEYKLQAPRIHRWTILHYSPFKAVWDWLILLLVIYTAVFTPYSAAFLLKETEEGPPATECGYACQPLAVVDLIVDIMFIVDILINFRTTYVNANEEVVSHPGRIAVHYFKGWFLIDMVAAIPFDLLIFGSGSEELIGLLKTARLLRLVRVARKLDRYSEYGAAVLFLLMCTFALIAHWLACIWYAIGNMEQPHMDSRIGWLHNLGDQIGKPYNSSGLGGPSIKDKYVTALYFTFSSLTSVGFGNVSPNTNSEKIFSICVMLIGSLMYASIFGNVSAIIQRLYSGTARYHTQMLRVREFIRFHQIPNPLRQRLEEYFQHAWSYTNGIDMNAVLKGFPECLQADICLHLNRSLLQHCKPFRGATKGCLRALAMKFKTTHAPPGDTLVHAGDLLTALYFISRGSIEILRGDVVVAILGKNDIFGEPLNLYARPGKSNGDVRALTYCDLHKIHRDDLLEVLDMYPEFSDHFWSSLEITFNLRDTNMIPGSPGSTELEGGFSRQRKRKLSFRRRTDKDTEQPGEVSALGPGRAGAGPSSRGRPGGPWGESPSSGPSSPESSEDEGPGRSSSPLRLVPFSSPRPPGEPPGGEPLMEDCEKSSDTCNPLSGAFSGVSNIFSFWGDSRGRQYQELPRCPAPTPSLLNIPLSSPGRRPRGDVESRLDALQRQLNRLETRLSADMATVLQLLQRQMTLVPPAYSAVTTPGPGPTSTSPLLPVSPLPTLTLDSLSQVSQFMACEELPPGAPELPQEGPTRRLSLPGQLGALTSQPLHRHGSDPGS
T6 sequence (P08684 whole entry, canonical isoform): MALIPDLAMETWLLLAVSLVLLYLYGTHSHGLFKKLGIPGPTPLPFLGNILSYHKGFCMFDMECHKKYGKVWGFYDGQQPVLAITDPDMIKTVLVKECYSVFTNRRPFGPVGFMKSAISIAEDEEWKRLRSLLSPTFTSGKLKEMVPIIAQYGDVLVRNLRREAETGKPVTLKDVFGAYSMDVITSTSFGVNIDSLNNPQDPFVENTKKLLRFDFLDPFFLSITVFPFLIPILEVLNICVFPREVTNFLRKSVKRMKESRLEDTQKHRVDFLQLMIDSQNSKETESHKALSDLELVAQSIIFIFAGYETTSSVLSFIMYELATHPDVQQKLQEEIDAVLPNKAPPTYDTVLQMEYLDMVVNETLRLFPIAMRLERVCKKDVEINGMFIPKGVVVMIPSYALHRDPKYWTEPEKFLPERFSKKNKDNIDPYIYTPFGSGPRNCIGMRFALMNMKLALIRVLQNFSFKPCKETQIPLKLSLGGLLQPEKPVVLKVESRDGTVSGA
T3 sequence (P11712 whole entry): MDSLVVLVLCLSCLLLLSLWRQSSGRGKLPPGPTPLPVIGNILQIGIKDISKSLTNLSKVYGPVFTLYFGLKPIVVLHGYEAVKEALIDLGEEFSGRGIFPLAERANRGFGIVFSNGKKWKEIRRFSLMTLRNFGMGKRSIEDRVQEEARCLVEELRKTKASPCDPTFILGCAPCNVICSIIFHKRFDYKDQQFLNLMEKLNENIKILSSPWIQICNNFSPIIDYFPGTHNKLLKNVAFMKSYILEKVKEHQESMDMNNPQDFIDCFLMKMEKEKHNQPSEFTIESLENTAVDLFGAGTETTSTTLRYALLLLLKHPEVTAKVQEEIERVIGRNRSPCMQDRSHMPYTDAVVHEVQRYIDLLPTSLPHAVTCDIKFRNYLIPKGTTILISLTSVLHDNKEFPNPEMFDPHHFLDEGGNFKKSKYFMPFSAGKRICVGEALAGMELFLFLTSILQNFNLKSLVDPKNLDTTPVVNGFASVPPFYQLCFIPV
T5 sequence (P10635 whole entry, canonical isoform): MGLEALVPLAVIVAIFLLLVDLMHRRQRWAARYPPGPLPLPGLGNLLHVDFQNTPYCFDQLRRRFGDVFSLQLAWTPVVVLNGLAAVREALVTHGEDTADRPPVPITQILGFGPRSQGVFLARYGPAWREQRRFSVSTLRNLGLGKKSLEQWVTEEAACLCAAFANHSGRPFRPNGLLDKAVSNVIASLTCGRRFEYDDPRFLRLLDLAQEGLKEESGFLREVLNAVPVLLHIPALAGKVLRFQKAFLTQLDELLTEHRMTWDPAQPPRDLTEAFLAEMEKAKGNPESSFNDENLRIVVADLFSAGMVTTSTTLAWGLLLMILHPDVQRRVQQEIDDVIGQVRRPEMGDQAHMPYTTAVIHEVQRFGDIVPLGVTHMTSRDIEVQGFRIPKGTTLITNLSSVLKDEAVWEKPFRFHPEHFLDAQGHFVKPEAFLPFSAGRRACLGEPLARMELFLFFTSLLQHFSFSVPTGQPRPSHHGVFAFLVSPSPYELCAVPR
T4 sequence (P21453 whole entry): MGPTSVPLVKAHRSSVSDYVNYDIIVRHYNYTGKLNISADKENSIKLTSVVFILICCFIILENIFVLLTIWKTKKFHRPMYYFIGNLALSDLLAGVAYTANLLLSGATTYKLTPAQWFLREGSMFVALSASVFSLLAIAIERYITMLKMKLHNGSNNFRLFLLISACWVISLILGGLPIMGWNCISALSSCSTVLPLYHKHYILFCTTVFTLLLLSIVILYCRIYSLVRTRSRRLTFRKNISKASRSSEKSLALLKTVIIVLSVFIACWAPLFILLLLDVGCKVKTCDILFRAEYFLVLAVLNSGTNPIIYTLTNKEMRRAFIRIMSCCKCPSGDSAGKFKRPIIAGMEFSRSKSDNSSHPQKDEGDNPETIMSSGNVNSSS

Compound: COc1ccccc1N1CCN(c2nc(NC(=O)C(C)(C)C)c(C(=O)c3ccccc3)s2)CC1 [KRO-105714]
- IC50 (1A2): > 10 µM
- inhibition at 10 µM (hERG potassium channel [1]; read-out: %-Inhibition/[3H]Astemizole -5): 45%
- inhibition at 1 µM (hERG potassium channel [1]; read-out: %-Inhibition/[3H]Astemizole -6): 3%
- IC50 (2C9): > 10 µM
- IC50 [2]: 0.0792 µM
- IC50 (2D6): > 10 µM
- IC50 (hERG potassium channel [3]): > 10 µM
- IC50 (3A4): > 10 µM
- IC50 (2C19): > 10 µM
